The values that follow come from patent US7476646B1, “Agricultural promoters/active ingredients” (CJB Industries, Inc., priority 2004, dated 2009).

The subject of assay [1] is fungal and bacterial pathogens. Kind of assay: Field control trial, plant growth, grower rating, phytotoxicity, overall control. Format: in vivo. The conditions noted are these: comparison area. The text has this: This composition was applied to a field to which other treatments had been applied. The conditions under which this field control was studies are summarized below.
Treatment—400 ppm Dicocodimethylammonium chloride+1200 ppm EDTA+400 ppm Citric acid+40 ppm soyamine+3000 ppm soybean oil+180 ppm Tergitol NP-6
The field was visited the day of application for a pre-spray disease rating. Major problems were observed, and minor problems were observed as well. Ratings were made on the major diseases Bacterial Spot, Grey Mold, Blight, and Leaf Spot. The observations and % ratings were also taken for Rhizoctonia, Powdery Mildew, Stem Rot, and Bacterial Speck.
The quat salt treatment was applied at a rate of 1 gallon of the composition/100 gallons of water/acre. This relatively low treatment rate provided some concerns regarding complete coverage due to the low volume of water and bushiness of the plants. Blight and Stem Rot were both located at the lower portion of the plant and concealed by a lot of foliage.
Four plants had been marked on day 1 so that their progress could be tracked both in terms of growth and disease control. All four had grown between 5 and 7 inches in height with a tremendous amount of flowering and new growth present.
The grower gave the Treatment a 4 on a scale of 1 (Poor) to 5 (Perfect), when compared to hydrogen peroxide. H is rating for hydrogen peroxide was 2.5 to 3.

For assay [2] the following is noted: on contact lenses; cited from earlier work.
Assay [3] relates to Staphylococcus. The note with it: on Staphylococcus; cited from earlier work.
For assay [4], the system named is Erwinia carotovora. Kind of assay: Effect of quat salts on Erwinia carotovora (percent inhibition). Type of assay: cell-based. How it is done: To measure the antibacterial effectiveness of the quat salts, the effect of various salts, at an application rate of 50 ppm, was measured. The data regarding the effectiveness is summarized below:
The effectiveness of lower concentrations of the quat salts at inhibiting Erwinia carotovora infection was also measured, where various additives were also added.

In the case of `S=C([S-])NCCNC(=S)[S-].[Zn+2]` [Dithane, zinc ethylenebis(dithiocarbamate)], in assay [1], the “response of diseases in treated area” value was “responding (especially on molds and mildews) but not as rapid and completely”. In the case of Benzalkonium chloride [BAC], the “effectiveness relative to other QACs” value in assay [2] was “about 6 times”. Besides, the “effectiveness relative to other QACs tested” value in assay [3] was “about 2.5”. Turning to Cocoalkyltrimethyl ammonium chloride, the “Percent Inhibition” value in assay [4] (application rate of 50 ppm) is reported as 25%. Turning to Dicoco dimethyl ammonium chloride, the figures for the “Percent Inhibition” value in assay [4] (30 ppm dicoco dimethyl ammonium chloride with additive (level relative to quat)) and in assay [4] (application rate of 50 ppm) were 40% and 75%, respectively. On to Ditallow dimethyl ammonium chloride, for which the “Percent Inhibition” value in assay [4] (application rate of 50 ppm) is given as 50%.

For the compound Soyalkyltrimethyl ammonium chloride, the “Percent Inhibition” value in assay [4] (application rate of 50 ppm) worked out at 35%. The same measure, in the same setting: the figure for Tallowalkyltrimethyl ammonium chloride is 30%.
